The text below walks through data of patent EP0672421B1, “ENDOTHELIN ACTIVITY INHIBITOR” (Kurashiki Boseki Kabushiki Kaisha, priority 1993, dated 2002).

This test concerns 3T3 cells. The experiment in a line: Increase of intracellular calcium ion concentration by addition of endothelin. It counts as cell-based. Particulars: mouse 3T3 cells; endothelin-1 0.01 to 100 ng/ml; relative fluorescence intensity; Figure 4. The procedure:
It is known that addition of endothelin into culture cell causes the elevation of intracellular Ca^2+ concentration.
Commercially available 3T3 cells (ATCC No.CCL92) cultured in a flask according to the standard method were used in the experiments. The cells adhered to a inner wall of the flask were harvested by trypsinization treatment, washed three times with Ca^2+-free phosphate buffered saline (PBS) and suspended into 200 µl of the Ca^2+-free PBS. Into the cell suspension, a fluorescent indicator of Ca^2+, FLUO-3AM (Wako chemicals: 1 mM in DMSO solution), was added at a final concentration of 1 µM. The cells were incubated at 37°C for 10 minutes to allow them to uptake the indicator. […]
The increase in relative fluorescence intensity caused by Ca^2+ influx was measured with FACScan of Becton, Dickinson & Co.. In the measurement, a base line was determined over 20 seconds, then a test substance (for example endothelin) was added into the sample and followed the time course of the relative fluorescence intensity for about 80 seconds.
Into each aliquots of the above cell suspension, endothelin-1 was added at a final concentration of 0.01 to 100 ng/ml to observe the changes in the relative fluorescence intensity.
On the technique in general: A change in cytosolic calcium serves as a functional read-out for many receptors and channels.

Positions of bridges follow the written chain, without caps; N, C: chain ends. No end group written: not given here.

For the substance “endothelin-1 (CSCSSLMDKECVYFCHLDIIW; disulfide 1-15, 3-11; ends not checked; UniProt P05305 53-73, looked up)”, the “increase of intracellular calcium ion concentration” value is “increase of the intracellular calcium ion concentration occurs in proportion to the concentration of endothelin”.
